target: T1, human full length HSD11 β 1 (Homo sapiens, UniProt P28845); assay: In Vitro HSD11β1 Inhibition Assay; assay type: cell-based; settings: CHO cells transiently expressing human HSD11β1; 200 nM cortisone+500 uM NADPH overnight; cortisone to cortisol by LC/MS-MS; read-out: 11βHSD1 (IC50)
T1 construct: transient expression of human full length HSD11 β 1 expression vector; host or cells: CHO cells (transient transfection)
Procedure, shortened: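 CHO cells transiently transfected with human full-length HSD11β1 were re-seeded after 24 h and, 24 h later, incubated overnight with 200 nM cortisone plus 500 uM NADPH and inhibitor. Cortisone-to-cortisol conversion was measured by LC/MS-MS. IC50 from an 8-point log concentration–inhibition curve.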

T1 sequence (P28845 whole entry): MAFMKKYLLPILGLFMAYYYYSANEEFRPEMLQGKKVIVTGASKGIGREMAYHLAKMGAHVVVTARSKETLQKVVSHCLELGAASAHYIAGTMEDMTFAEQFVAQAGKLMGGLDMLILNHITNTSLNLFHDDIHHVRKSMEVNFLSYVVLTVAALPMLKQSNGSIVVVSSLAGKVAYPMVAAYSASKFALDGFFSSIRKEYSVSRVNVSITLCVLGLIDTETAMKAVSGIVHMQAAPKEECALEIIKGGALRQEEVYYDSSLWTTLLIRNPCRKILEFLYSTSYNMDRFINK

**Q.** How did the IC50 turn out when `CC(CC(=O)N1CCCC2C(C(=O)O)CCCC21)c1cn(C)c2cccc(C3CC3)c12` (single isomer, unassigned) [Compound 213, 1-[3-(4-cyclopropyl-1-methyl-1H-indol-3-yl)butanoyl]decahydroquinoline-5-carboxylic acid] was run?
**A.** > 250 nM

**Q.** For `O=C(CCc1c[nH]c2ccccc12)N1CCCC2CCCCC21` (stereo not shown) [Example 93, 3-(1H-indol-3-yl)-1-(octahydroquinolin-1(2H)-yl)propan-1-one], which IC50 is on record?
**A.** < 100 nM

**Q.** How did the IC50 turn out when `COCn1cc(C(C)CC(=O)N2CCCC3C(C(=O)O)CCCC32)c2c(C3CC3)cccc21` (stereo not shown) [Compound 242, 1-{3-[4-cyclopropyl-1-(methoxymethyl)-1H-indol-3-yl]butanoyl}decahydroquinoline-5-carboxylic acid] was run?
**A.** > 250 nM

**Q.** How did the IC50 turn out when `Cn1cc(C(C)(C)CC(=O)N2CCCC3(C)CCCCC23)c2ccccc21` (stereo not shown) [Compound 59, 3-methyl-3-(1-methyl-1H-indol-3-yl)-1-(4a-methyloctahydroquinolin-1 (2H)-yl)butan-1-one] was run?
**A.** 150 to 200 nM

**Q.** Which IC50 does the source give for `CC(CC(=O)N1CCCC2C(C(=O)O)CCCC21)c1c[nH]c2cccc(-c3ccccc3F)c12` (stereo not shown) [Compound 257, 1-{3-[4-(2-fluorophenyl)-1H-indol-3-yl]butanoyl}decahydroquinoline-5-carboxylic acid] here?
**A.** 100 to 150 nM

**Q.** With `CC(C(=O)N1CCCC2C(C(=O)O)CCCC21)c1c[nH]c2cccc(C3CC3)c12` (stereo not shown) [Compound 267, 1-(2-(4-cyclopropyl-1H-indol-3-yl)propanoyl)decahydroquinoline-5-carboxylic acid] as the molecule, how does the IC50 read?
**A.** > 250 nM

**Q.** For `O=C(CCc1c[nH]c2cccc(F)c12)N1CCOC2CCCCC21` (stereo not shown) [Compound 72, 3-(4-fluoro-1H-indol-3-yl)-1-(octahydro-4H-1,4-benzoxazin-4-yl)propan-1-one], which IC50 is on record?
**A.** < 100 nM

**Q.** Which IC50 does the source give for `O=C(CCc1nc2ccccc2s1)N1CCCC2CCCCC21` (stereo not shown) [Example 75, 3-(1,3-benzothiazol-2-yl)-1-(octahydroquinolin-1(2H)-yl)propan-1-one] here?
**A.** < 100 nM

**Q.** How did the IC50 turn out when `O=C(CCc1nc2ccccc2s1)N1CC2CCCCC2C1` (stereo not shown) [Example 82, 3-(1,3-benzothiazol-2-yl)-1-(octahydro-2H-isoindol-2-yl)propan-1-one] was run?
**A.** > 250 nM

**Q.** `CC(C)C(CC(=O)N1CCC(C(=O)O)C2CCCCC21)c1c[nH]c2ncccc12` (stereo not shown) [Example 163, 1-[4-methyl-3-(1H-pyrrolo[2,3-b]pyridin-3-yl)pentanoyl]decahydro quinoline-4-carboxylic acid] was tested. Which IC50 did it give?
**A.** > 250 nM

**Q.** `CC(CC(=O)N1CCCC2CCCCC21)c1c[nH]c2ccccc12` (single isomer, unassigned) [Example 119, 3-(1H-indol-3-yl)-1-(octahydroquinolin-1(2H)-yl)butan-1-one] was tested. Which IC50 did it give?
**A.** < 100 nM

**Q.** For `Cn1cc(CCC(=O)N2CCO[C@@H]3CCCC[C@H]32)c2ccccc21` (relative stereo) [Compound 63, 3-(1-methyl-1H-indol-3-yl)-1-[(trans-4a,8a)-octahydro-4H-1,4-benzoxazin-4-yl]propan-1-one], which IC50 is on record?
**A.** > 250 nM

**Q.** How did the IC50 turn out when `CC(CC(=O)N1CCCC2CCCCC21)c1c[nH]c2ncccc12` (single isomer, unassigned) [Example 144, 1-(octahydroquinolin-1(2H)-yl)-3-(1H-pyrrolo[2,3-b]pyridin-3-yl)butan-1-one] was run?
**A.** > 250 nM

**Q.** How did the IC50 turn out when `CC(CC(=O)N1CCCC2(C)CCCCC12)c1cn(C)c2ccccc12` (stereo not shown) [Example 113, 3-(1-methyl-1H-Indol-3-yl)-1-(4a-methyloctahydroquinolin-1(2H)-yl)butan-1-one] was run?
**A.** > 250 nM

**Q.** With `CC(CC(=O)N1CCCC2C(C(=O)O)CCCC21)c1c[nH]c2cccc(-c3ccc(F)o3)c12` (single isomer, unassigned) [Compound 249, 1-{3-[4-(5-fluorofuran-2-yl)-1H-indol-3-yl]butanoyl}decahydroquinoline-5-carboxylic acid] as the molecule, how does the IC50 read?
**A.** 200 to 250 nM

**Q.** Which IC50 does the source give for `O=C(O)C1CCC2C(CCCN2C(=O)CC(c2ccccc2)c2c[nH]c3cccc(F)c23)C1` (stereo not shown) [Example 186, 1-[3-(4-fluoro-1H-indol-3-yl)-3-phenylpropanoyl]decahydroquinoline-6-carboxylic acid] here?
**A.** < 100 nM

**Q.** With `O=C(O)C1CCN(C(=O)CC(c2ccc(F)cc2)c2c[nH]c3cccc(F)c23)C2CCCCC12` (single isomer, unassigned) [Compound 225, 1-[3-(4-fluoro-1H-indol-3-yl)-3-(4-fluorophenyl)propanoyl]decahydroquinoline-4-carboxylic acid] as the molecule, how does the IC50 read?
**A.** < 100 nM

**Q.** With `CC(CC(=O)N1CCCC2C(C(=O)O)CCCC21)c1c[nH]c2cccc(-c3ccco3)c12` (single isomer, unassigned) [Compound 223, 1-{3-[4-(furan-2-yl)-1H-indol-3-yl]butanoyl}decahydroquinoline-5-carboxylic acid] as the molecule, how does the IC50 read?
**A.** 100 to 150 nM

**Q.** `CC(CC(=O)N1CCCC2C(C(=O)O)CCCC21)c1c(C#N)n(C)c2cccc(C3CC3)c12` (stereo not shown) [Compound 258, 1-[3-(2-cyano-4-cyclopropyl-1-methyl-1H-indol-3-yl)butanoyl]decahydroquinoline-5-carboxylic acid] was tested. Which IC50 did it give?
**A.** > 250 nM

**Q.** `CC1CC2CCCCC2N1C(=O)CCc1c[nH]c2ccccc12` (stereo not shown) [Compound 45] was tested. Which IC50 did it give?
**A.** > 250 nM

**Q.** With `CC1CC2CCCCC2N(C(=O)CCc2c[nH]c3ccccc23)C1` (stereo not shown) [Compound 37, 3-(1H-indol-3-yl)-1-(3-methyloctahydroquinolin-1(2H)-yl)propan-1-one] as the molecule, how does the IC50 read?
**A.** > 250 nM

**Q.** Which IC50 does the source give for `O=C(CCc1c[nH]c2ncccc12)N1CCCC2CCCCC21` (stereo not shown) [Example 84, 1-(octahydroquinolin-1(2H)-yl)-3-(1H-pyrrolo[2,3-b]pyridin-3-yl)propan-1-one] here?
**A.** < 100 nM

**Q.** For `Cc1ccc2[nH]cc(CCC(=O)N3CCCC4CCCCC43)c2c1` (stereo not shown) [Compound 3, 3-(5-methyl-1H-indol-3-yl)-1-(octahydroquinolin-1(2H)-yl)propan-1-one], which IC50 is on record?
**A.** 150 to 200 nM

**Q.** Which IC50 does the source give for `O=C(CCc1c[nH]c2ccccc12)N1CCCC2=C1CCCC2` [Compound 48, 1-(3,4,5,6,7,8-hexahydroquinolin-1(2H)-yl)-3-(1H-indol-3-yl)propan-1-one] here?
**A.** > 250 nM

**Q.** How did the IC50 turn out when `CCn1cc(C(C)CC(=O)N2CCCC3C(C(=O)O)CCCC32)c2c(Cl)cccc21` (stereo not shown) [Compound 266, 1-[3-(4-chloro-1-ethyl-1H-indol-3-yl)butanoyl]decahydroquinoline-5-carboxylic acid] was run?
**A.** > 250 nM

**Q.** With `CC(C)(C)NC(=O)C1CC2CCCCC2CN1C(=O)CCc1c[nH]c2ccccc12` (stereo not shown) [Compound 23, N-tert-butyl-2-[3-(1H-indol-3-yl)propanoyl]decahydroisoquinoline-3-carboxamide] as the molecule, how does the IC50 read?
**A.** > 250 nM

**Q.** With `O=C1CCN(C(=O)CCc2c[nH]c3cc(F)ccc23)C2CCCCC12` (stereo not shown) [Compound 43, 1-[3-(6-fluoro-1H-indol-3-yl)propanoyl]octahydroquinolin-4(1H)-one] as the molecule, how does the IC50 read?
**A.** > 250 nM

**Q.** `Cc1cc(-c2cccc3[nH]cc(C(C)CC(=O)N4CCCC5C(C(=O)O)CCCC54)c23)on1` (stereo not shown) [Compound 239, 1-{3-[4-(3-methyl-1,2-oxazol-5-yl)-1H-indol-3-yl]butanoyl}decahydroquinoline-5-carboxylic acid] was tested. Which IC50 did it give?
**A.** > 250 nM

**Q.** `Cc1cccc2c1c(CCC(=O)N1CC(C)(C)OC3CCCCC31)cn2C` (stereo not shown) [Compound 70, 3-(1,4-dimethyl-1H-indol-3-yl)-1-(2,2-dimethyloctahydro-4H-1,4-benzoxazin-4-yl)propan-1-one] was tested. Which IC50 did it give?
**A.** > 250 nM

**Q.** With `CC(CC(=O)N1CCCC2C(C(=O)O)CCCC21)c1c[nH]c2cccc(C3CC3)c12` (single isomer, unassigned) [Compound 196, 1-[3-(4-cyclopropyl-1H-indol-3-yl)butanoyl]decahydroquinoline-5-carboxylic acid] as the molecule, how does the IC50 read?
**A.** < 100 nM

**Q.** For `CC(CC(=O)N1CCCC2C(C(=O)O)CCCC21)c1c[nH]c2cccc(-c3ccco3)c12` (stereo not shown) [Compound 215, 1-{3-[4-(furan-2-yl)-1H-indol-3-yl]butanoyl}decahydroquinoline-5-carboxylic acid], which IC50 is on record?
**A.** < 100 nM

**Q.** For `CC1CCC2CCCCC2N1C(=O)CCc1nc2ccccc2s1` (stereo not shown) [Example 76, 3-(1,3-benzothiazol-2-yl)-1-(2-methyloctahydroquinolin-1 (2H)-yl)propan-1-one], which IC50 is on record?
**A.** > 250 nM

**Q.** For `CC(CC(=O)N1CCCC2C(C(=O)O)CCCC21)c1c[nH]c2cccc(Cl)c12` (stereo not shown) [Compound 193, 1-[3-(4-chloro-1H-indol-3-yl)butanoyl]decahydroquinoline-5-carboxylic acid], which IC50 is on record?
**A.** 100 to 150 nM

**Q.** With `CC(CC(=O)N1CCCC2CCCCC21)c1c[nH]c2ccccc12` (stereo not shown) [Compound 1, 3-(1H-indol-3-yl)-1-(octahydroquinolin-1(2H)-yl)butan-1-one] as the molecule, how does the IC50 read?
**A.** < 100 nM

**Q.** For `CC(CC(=O)N1CCCC2C(C(=O)O)CCCC21)c1c[nH]c2cccc(C3CC3)c12` (single isomer, unassigned) [Compound 195, 1-[3-(4-cyclopropyl-1H-indol-3-yl)butanoyl]decahydroquinoline-5-carboxylic acid], which IC50 is on record?
**A.** < 100 nM

**Q.** Which IC50 does the source give for `O=C(O)C1CCN(C(=O)CCc2c[nH]c3ccccc23)C2CCCCC12` (stereo not shown) [Compound 50, 1-[3-(1H-indol-3-yl)propanoyl]decahydroquinoline-4-carboxylic acid] here?
**A.** > 250 nM

**Q.** For `CO/N=C1/CCN(C(=O)CCc2c[nH]c3ccccc23)C2CCCCC12` (stereo not shown) [Compound 36], which IC50 is on record?
**A.** > 250 nM

**Q.** For `CC(CC(=O)N1CCOC2CCCCC21)c1c[nH]c2cccc(F)c12` (stereo not shown) [Example 136, 3-(4-fluoro-1H-indol-3-yl)-1-(octahydro-4H-1,4-benzoxazin-4-yl)butan-1-one], which IC50 is on record?
**A.** > 250 nM

**Q.** Which IC50 does the source give for `O=C(CCc1c[nH]c2cc(F)ccc12)N1CCCC2CCCCC21` (stereo not shown) [Compound 39, 3-(6-fluoro-1H-indol-3-yl)-1-(octahydroquinolin-1(2H)-yl)propan-1-one] here?
**A.** > 250 nM

**Q.** Which IC50 does the source give for `CC(CC(=O)N1CCCC2C(C(=O)O)CCCC21)c1cn(C)c2cccc(-c3ccco3)c12` (stereo not shown) [Compound 216, 1-{3-[4-(furan-2-yl)-1-methyl-1H-indol-3-yl]butanoyl}decahydroquinoline-5-carboxylic acid] here?
**A.** < 100 nM
